The numbers were not newly measured in patent publication US9481856B2, “Pharmaceutical formulations comprising stabilized polysaccharides and source of hydrogen peroxide” (Bausch & Lomb Incorporated, priority 2008, dated 2016), which cites them from elsewhere.

Data set [1] deals with sensitive tissues of the eye.
Data set [2] relates to goblet cell.

In the case of benzalkonium chloride [BAK], in data set [1], the concentration causing necrosis was 0.05-0.1%.

Regarding “α-4-{tris(2hydroxyethyl)ammonium-2-butenyl} poly {1-dimethylammonium-2-butenyl}-ω-tris(2-hydroxyethyl)ammonium chloride [polyquaternium-1]”, in data set [2], the “effect on goblet cell density” value is recorded as “significantly to decrease goblet cell density”.
